Measurements published in patent US6355799B1, “Substituted benzene compounds, process for their preparation, and herbicidal and defoliant compositions containing them” (ISK Americas Incorporated, priority 1997, dated 2002).

Legend:
Format in all cases: in vivo
[1] = test system: sicklepod (Cassia obtusifolia, CASOB); experiment: Pre-emerge test, greenhouse herbicide activity screening; conditions: for phytotoxicity rating CASOB: pre-emerge, 14 days after application, scale 0-100; for Pre-emerge Herbicidal Activity CASOB: phytotoxicity rating 0-100, 14 days after application
Method in brief: (§1)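 Visual ratings on a 0-100 scale (0 no damage, 100 all plants dead) were taken at 14 days after treatment. Rates of 15-1000 g ai/ha in acetone, 187 l/ha, were sprayed onto soil one day after planting (pre-emerge) or onto 2-3 leaf plants with 0.25% v/v surfactant (post-emerge).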

[2] = test system: lambsquarters (Chenopodium album, CHEAL); experiment: as above; conditions: for phytotoxicity rating CHEAL: pre-emerge, 14 days after application, scale 0-100; for Pre-emerge Herbicidal Activity CHEAL: phytotoxicity rating 0-100, 14 days after application
Method in brief: as §1

[3] = test system: velvetleaf (Abutilon theophrasti, ABUTH); experiment: as above; conditions: for phytotoxicity rating ABUTH: pre-emerge, 14 days after application, scale 0-100; for Pre-emerge Herbicidal Activity ABUTH: phytotoxicity rating 0-100, 14 days after application
Method in brief: as §1

[4] = test system: green foxtail (Setaria viridis, SETVI); experiment: as above; conditions: for phytotoxicity rating SETVI: pre-emerge, 14 days after application, scale 0-100; for Pre-emerge Herbicidal Activity SETVI: phytotoxicity rating 0-100, 14 days after application
Method in brief: as §1

[5] = test system: barnyardgrass (Echinochloa crus-galli, ECHCG); experiment: as above; conditions: for phytotoxicity rating ECHCG: pre-emerge, 14 days after application, scale 0-100; for Pre-emerge Herbicidal Activity ECHCG: phytotoxicity rating 0-100, 14 days after application
Method in brief: as §1

[6] = test system: large crabgrass (Digitaria sanguinalis, DIGSA); experiment: as above; conditions: for phytotoxicity rating DIGSA: pre-emerge, 14 days after application, scale 0-100; for Pre-emerge Herbicidal Activity DIGSA: phytotoxicity rating 0-100, 14 days after application
Method in brief: as §1

[7] = test system: ivyleaf morningglory (Ipomoea hederacea, IPOHE); experiment: as above; conditions: for phytotoxicity rating IPOHE: pre-emerge, 14 days after application, scale 0-100; for Pre-emerge Herbicidal Activity IPOHE: phytotoxicity rating 0-100, 14 days after application
Method in brief: as §1

[8] = test system: upland rice (Oryza sp., var. Tebonnet, RICE); experiment: Post-emerge test, crop safety; conditions: post-emerge, 14 days after application, rating scale 0-100
Method in brief: as §1

[9] = test system: field corn (Zea mays L., var. Dekalb 535, CORN); experiment: Post-emerge test, crop safety; conditions: post-emerge, 14 days after application, rating scale 0-100
Method in brief: as §1

[10] = test system: sicklepod (Cassia obtusifolia, CASOB); experiment: Post-emerge test, greenhouse herbicide activity screening; conditions: post-emerge, 14 days after application, rating scale 0-100
Method in brief: (§2)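 Rating: 0–100 visual injury, 14 DAA. Application: acetone, 187 l/ha, 15–1000 g ai/ha, flat-fan track sprayer with nozzle 40–45 cm above soil or canopy. Post-emerge runs used 0.25% v/v surfactant on 2–3 leaf plants.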

[11] = test system: lambsquarters (Chenopodium album, CHEAL); experiment: as above; conditions: post-emerge, 14 days after application, rating scale 0-100
Method in brief: as §2

[12] = test system: velvetleaf (Abutilon theophrasti, ABUTH); experiment: as above; conditions: post-emerge, 14 days after application, rating scale 0-100
Method in brief: as §2

[13] = test system: green foxtail (Setaria viridis, SETVI); experiment: as above; conditions: post-emerge, 14 days after application, rating scale 0-100
Method in brief: as §2

[14] = test system: barnyardgrass (Echinochloa crus-galli, ECHCG); experiment: as above; conditions: post-emerge, 14 days after application, rating scale 0-100
Method in brief: as §2

[15] = test system: johnsongrass (Sorghum halepense, SORHA); experiment: as above; conditions: post-emerge, 14 days after application, rating scale 0-100
Method in brief: as §2

[16] = test system: redroot pigweed (Amaranthus retroflexus, AMARE); experiment: as above; conditions: post-emerge, 14 days after application
Method in brief: as §2

[17] = test system: large crabgrass (Digitaria sanguinalis, DIGSA); experiment: as above; conditions: post-emerge, 14 days after application, rating scale 0-100
Method in brief: as §2

[18] = test system: ivyleaf morningglory (Ipomoea hederacea, IPOHE); experiment: as above; conditions: post-emerge, 14 days after application, rating scale 0-100
Method in brief: as §2

[19] = test system: upland rice (Oryza sp., var. Tebonnet, RICE); experiment: Pre-emerge test, crop safety; conditions: for phytotoxicity rating RICE (crop damage): pre-emerge, 14 days after application, scale 0-100; for Pre-emerge Herbicidal Activity RICE: crop damage rating 0-100, 14 days after application
Method in brief: as §1

[20] = test system: field corn (Zea mays L., var. Dekalb 535, CORN); experiment: Pre-emerge test, crop safety; conditions: for phytotoxicity rating CORN (crop damage): pre-emerge, 14 days after application, scale 0-100; for Pre-emerge Herbicidal Activity CORN: crop damage rating 0-100, 14 days after application
Method in brief: as §1

[21] = test system: redroot pigweed (Amaranthus retroflexus, AMARE); experiment: Pre-emerge test, greenhouse herbicide activity screening; conditions: for phytotoxicity rating AMARE: pre-emerge, 14 days after application, scale 0-100; for Pre-emerge Herbicidal Activity AMARE: phytotoxicity rating 0-100, 14 days after application
Method in brief: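 Compounds in acetone were track-sprayed at 187 l/ha, 15–1000 g ai/ha, onto sandy loam pots. Pre-emerge seeds were sown one day before spraying, with surface watering afterwards. Post-emerge plants were at the 2–3 leaf stage and sprayed with 0.25% v/v non-ionic surfactant. Injury was rated 0–100 at 14 days.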

[22] = 250 g ai/ha, rating scale 0-100

COc1c(Cl)cc(F)c(-n2c(=O)cc(C(F)(F)F)n(C)c2=O)c1NC(=O)C=Cc1ccccc1[N+](=O)[O-] [2-126]
phytotoxicity rating CASOB ([1]; 63 g ai/ha): 10
phytotoxicity rating CASOB ([1]; 250 g ai/ha): 70
phytotoxicity rating CHEAL ([2]; 63 g ai/ha): 100
phytotoxicity rating CHEAL ([2]; 250 g ai/ha): 100
phytotoxicity rating ABUTH ([3]; 63 g ai/ha): 100
phytotoxicity rating ABUTH ([3]; 250 g ai/ha): 100
phytotoxicity rating SETVI ([4]; 63 g ai/ha): 40
phytotoxicity rating SETVI ([4]; 250 g ai/ha): 100
phytotoxicity rating ECHCG ([5]; 63 g ai/ha): 10
phytotoxicity rating ECHCG ([5]; 250 g ai/ha): 40
phytotoxicity rating DIGSA ([6]; 63 g ai/ha): 30
phytotoxicity rating DIGSA ([6]; 250 g ai/ha): 90
phytotoxicity rating IPOHE ([7]; 63 g ai/ha): 10
phytotoxicity rating IPOHE ([7]; 250 g ai/ha): 90
RICE phytotoxicity rating (crop damage) ([8]; 63 g ai/ha): 0
RICE phytotoxicity rating (crop damage) ([8]; 250 g ai/ha): 50
CORN phytotoxicity rating (crop damage) ([9]; 63 g ai/ha): 10
CORN phytotoxicity rating (crop damage) ([9]; 250 g ai/ha): 10
CASOB phytotoxicity rating ([10]; 63 g ai/ha): 60
CASOB phytotoxicity rating ([10]; 250 g ai/ha): 60
CHEAL phytotoxicity rating ([11]; 63 g ai/ha): 80
CHEAL phytotoxicity rating ([11]; 250 g ai/ha): 95
ABUTH phytotoxicity rating ([12]; 63 g ai/ha): 90
ABUTH phytotoxicity rating ([12]; 250 g ai/ha): 100
SETVI phytotoxicity rating ([13]; 63 g ai/ha): 30
SETVI phytotoxicity rating ([13]; 250 g ai/ha): 40
ECHCG phytotoxicity rating ([14]; 63 g ai/ha): 0
ECHCG phytotoxicity rating ([14]; 250 g ai/ha): 10
SORHA phytotoxicity rating ([15]; 63 g ai/ha): 0
SORHA phytotoxicity rating ([15]; 250 g ai/ha): 10
AMARE phytotoxicity rating ([16]; 63 g ai/ha, rating scale 0-100): 80
AMARE phytotoxicity rating [16, 22]: 100
DIGSA phytotoxicity rating ([17]; 63 g ai/ha): 20
DIGSA phytotoxicity rating ([17]; 250 g ai/ha): 30
IPOHE phytotoxicity rating ([18]; 63 g ai/ha): 80
IPOHE phytotoxicity rating ([18]; 250 g ai/ha): 100
phytotoxicity rating RICE (crop damage) ([19]; 63 g ai/ha): 10
phytotoxicity rating RICE (crop damage) ([19]; 250 g ai/ha): 60
phytotoxicity rating CORN (crop damage) ([20]; 63 g ai/ha): 0
phytotoxicity rating CORN (crop damage) ([20]; 250 g ai/ha): 5
phytotoxicity rating AMARE ([21]; 63 g ai/ha): 100
phytotoxicity rating AMARE ([21]; 250 g ai/ha): 100

COc1c(Cl)cc(F)c(-n2c(=O)cc(C(F)(F)F)n(C)c2=O)c1NC(=O)OCc1cc(C)cc(C)c1 [4-37]
Pre-emerge Herbicidal Activity CASOB ([1]; 63 g ai/ha): 30
Pre-emerge Herbicidal Activity CASOB ([1]; 250 g ai/ha): 40
Pre-emerge Herbicidal Activity CHEAL ([2]; 63 g ai/ha): 100
Pre-emerge Herbicidal Activity CHEAL ([2]; 250 g ai/ha): 100
Pre-emerge Herbicidal Activity ABUTH ([3]; 63 g ai/ha): 100
Pre-emerge Herbicidal Activity ABUTH ([3]; 250 g ai/ha): 90
Pre-emerge Herbicidal Activity SETVI ([4]; 63 g ai/ha): 90
Pre-emerge Herbicidal Activity SETVI ([4]; 250 g ai/ha): 100
Pre-emerge Herbicidal Activity ECHCG ([5]; 63 g ai/ha): 10
Pre-emerge Herbicidal Activity ECHCG ([5]; 250 g ai/ha): 60
Pre-emerge Herbicidal Activity DIGSA ([6]; 63 g ai/ha): 60
Pre-emerge Herbicidal Activity DIGSA ([6]; 250 g ai/ha): 90
Pre-emerge Herbicidal Activity IPOHE ([7]; 63 g ai/ha): 30
Pre-emerge Herbicidal Activity IPOHE ([7]; 250 g ai/ha): 50
phytotoxicity rating RICE (crop damage) ([8]; 63 g ai/ha): 10
phytotoxicity rating RICE (crop damage) ([8]; 250 g ai/ha): 60
phytotoxicity rating CORN (crop damage) ([9]; 63 g ai/ha): 20
phytotoxicity rating CORN (crop damage) ([9]; 250 g ai/ha): 60
phytotoxicity rating CASOB ([10]; 63 g ai/ha): 90
phytotoxicity rating CASOB ([10]; 250 g ai/ha): 100
phytotoxicity rating CHEAL ([11]; 63 g ai/ha): 100
phytotoxicity rating CHEAL ([11]; 250 g ai/ha): 100
phytotoxicity rating ABUTH ([12]; 63 g ai/ha): 100
phytotoxicity rating ABUTH ([12]; 250 g ai/ha): 100
phytotoxicity rating SETVI ([13]; 63 g ai/ha): 90
phytotoxicity rating SETVI ([13]; 250 g ai/ha): 90
phytotoxicity rating ECHCG ([14]; 63 g ai/ha): 20
phytotoxicity rating ECHCG ([14]; 250 g ai/ha): 60
phytotoxicity rating SORHA ([15]; 63 g ai/ha): 40
phytotoxicity rating SORHA ([15]; 250 g ai/ha): 60
phytotoxicity rating AMARE ([16]; 63 g ai/ha, rating scale 0-100 (0 no damage, 100 complete death)): 100
phytotoxicity rating AMARE [16, 22]: 100
phytotoxicity rating DIGSA ([17]; 63 g ai/ha): 50
phytotoxicity rating DIGSA ([17]; 250 g ai/ha): 70
phytotoxicity rating IPOHE ([18]; 63 g ai/ha): 100
phytotoxicity rating IPOHE ([18]; 250 g ai/ha): 100
Pre-emerge Herbicidal Activity RICE ([19]; 63 g ai/ha): 10
Pre-emerge Herbicidal Activity RICE ([19]; 250 g ai/ha): 30
Pre-emerge Herbicidal Activity CORN ([20]; 63 g ai/ha): 0
Pre-emerge Herbicidal Activity CORN ([20]; 250 g ai/ha): 0
Pre-emerge Herbicidal Activity AMARE ([21]; 63 g ai/ha): 100
Pre-emerge Herbicidal Activity AMARE ([21]; 250 g ai/ha): 100
